Laboratory results published in ChEMBL document CHEMBL4382207, “Computer-aided drug discovery of Myc-Max inhibitors as potential therapeutics for prostate cancer” (Eur J Med Chem, 2018).
Active and inactive are the calls of the source. The rule behind the calls is not given here.

Legend:
[1] = biological target: T1, c-Myc/Max (Homo sapiens, UniProt P01106+P61244); test: Inhibition of Myc-Max (unknown origin) expressed in human LNCAP cells assessed as reduction in transcriptional activity at 25 uM after 1 day by luciferase reporter gene assay relative to control; type: cell-based
[2] = biological target: T1, c-Myc/Max; test: Inhibition of Myc-Max (unknown origin) expressed in human 22rv1 cells harboring UBE2C promoter assessed as reduction in ARV7 level at 25 uM after 1 day by luciferase reporter gene assay relative to control; type: cell-based
[3] = biological target: T1, c-Myc/Max; test: Inhibition of Myc-Max (unknown origin) expressed in human 22rv1 cells harboring UBE2C promoter assessed as reduction in ARV7 level after 1 day by luciferase reporter gene assay; type: cell-based
[4] = biological target: T1, c-Myc/Max; test: Inhibition of biotin-labeled EBOX oligonucleotide binding to GST-tagged Myc (368 to 454 residues)/His-tagged Max (23 to 102 residues) (unknown origin) expressed in Escherichia coli BL21(DE3) incubated up to 600 secs by biolayer interferometry assay
[5] = tested on: LNCaP; test: Induction of apoptosis in human LNCAP cells assessed as increase in PARP cleavage at 6.25 to 25 uM after 48 hrs by Western blot analysis; type: functional, cell-based
[6] = biological target: T1, c-Myc/Max; test: Inhibition of Myc-Max (unknown origin) expressed in human 22rv1 cells harboring UBE2C promoter assessed as reduction in ARV7 level at 12.5 to 25 uM after 48 hrs by Western blot analysis; type: cell-based
[7] = Cytotoxicity against rat HO15.19 cells assessed as reduction in cell viability at 25 uM after 96 hrs by prestoblue assay relative to control; type: cell-based; details: read-out: INH
[8] = biological target: T1, c-Myc/Max; test: Inhibition of biotin-labeled EBOX oligonucleotide binding to GST-tagged Myc (368 to 454 residues)/His-tagged Max (23 to 102 residues) (unknown origin) expressed in Escherichia coli BL21(DE3) at 500 uM incubated up to 600 secs by biolayer interferometry assay
[9] = tested on: LNCaP; test: Cytotoxicity against human LNCAP cells assessed as reduction in cell viability after 96 hrs by prestoblue assay; type: functional, cell-based
[10] = biological target: T1, c-Myc/Max; test: Inhibition of full length Myc-Max (unknown origin) expressed in human PC3 cells at 12.5 to 25 uM after 24 hrs by luciferase reporter gene based mammalian two-hybrid assay; type: cell-based
[11] = tested on: HO15.19; test: Cytotoxicity against rat HO15.19 cells assessed as reduction in cell viability at 3 uM after 96 hrs by prestoblue assay; type: cell-based; details: ho15.19, 96 h
[12] = tested on: LNCaP; test: Cytotoxicity against human LNCAP cells assessed as reduction in cell viability at 3 uM after 96 hrs by prestoblue assay relative to control; type: functional
[13] = biological target: T1, c-Myc/Max; test: Inhibition of Myc-Max (unknown origin) expressed in human LNCAP cells assessed as reduction in transcriptional activity after 1 day by luciferase reporter gene assay; type: cell-based

T1 sequence (P01106 whole entry): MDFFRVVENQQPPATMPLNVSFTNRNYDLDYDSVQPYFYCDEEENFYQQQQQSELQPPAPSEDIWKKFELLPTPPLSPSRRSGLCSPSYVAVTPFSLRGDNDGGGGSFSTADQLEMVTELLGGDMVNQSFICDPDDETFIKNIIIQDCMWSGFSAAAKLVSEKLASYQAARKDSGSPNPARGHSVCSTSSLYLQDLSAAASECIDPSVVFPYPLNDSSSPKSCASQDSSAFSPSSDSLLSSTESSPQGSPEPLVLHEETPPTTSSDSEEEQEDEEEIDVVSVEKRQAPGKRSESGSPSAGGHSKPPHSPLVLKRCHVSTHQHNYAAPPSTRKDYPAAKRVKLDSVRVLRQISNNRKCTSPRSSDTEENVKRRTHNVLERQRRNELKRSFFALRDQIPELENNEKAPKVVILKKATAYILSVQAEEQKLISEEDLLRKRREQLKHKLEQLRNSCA
T1 sequence (P61244 whole entry): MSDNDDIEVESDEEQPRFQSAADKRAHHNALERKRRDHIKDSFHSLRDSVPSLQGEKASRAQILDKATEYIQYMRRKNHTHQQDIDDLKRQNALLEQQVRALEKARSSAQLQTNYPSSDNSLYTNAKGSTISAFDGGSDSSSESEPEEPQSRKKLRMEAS

| SMILES | inhibition [1] | inhibition [2] | inhibition [3] | IC50 [9] | other results |
| --- | --- | --- | --- | --- | --- |
| NC(=O)c1ccsc1NC(=O)Nc1cccc(C(F)(F)F)c1 | 95% | 73% | Dose-dependent effect | – | – |
| CN1C(=O)/C(=C\C=C\c2ccco2)SC1=S | 78% | 64% | Dose-dependent effect | – | – |
| O=C(CN1C(=O)NC2(CCCC2)C1=O)Nc1cccc(C(F)(F)F)c1 | 65% | – | Dose-dependent effect | – | – |
| CS(=O)(=O)Nc1ccccc1C(=O)OCc1cc(=O)oc2cc(O)ccc12 | 53% | – | Dose-dependent effect | – | – |
| FC(F)(F)c1cc(NC(=S)NCc2ccccc2)cc(C(F)(F)F)c1 | 106% | 94% | Dose-dependent effect | 2.5 µM | inhibition [4]: Dose-dependent effect; Activity [5]: Active; inhibition [6]: Active; cytotoxicity at 96 h, 25 µM [7]: ≤ 40%; inhibition [8]: Active; inhibition [10]: Active; Activity [11]: Non-Toxic; inhibition at 3 µM [12]: 70%; IC50 [13]: 8.9 µM |
| O=[N+]([O-])c1ccc(Nc2ccccc2-c2ccccc2)c2nonc12 | 88% | – | Dose-dependent effect | 8.7 µM | inhibition [6]: Active; inhibition [8]: Active; inhibition [10]: inactive |
| CCc1ccc(/C=C2\SC(=S)NC2=O)cc1 | 91% | 70% | Dose-dependent effect | 18.3 µM | – |
| CC(C)(C)[C@H]1CCc2sc(C(=O)N3CCC(C(N)=O)CC3)cc2C1 | 73% | 58% | Dose-dependent effect | – | – |
| S=C(NCc1ccc(Cl)c(Cl)c1)Nc1cccnc1 | 73% | 50% | Dose-dependent effect | – | – |
| O=C1NC(=S)S/C1=C\c1ccccc1C(F)(F)F | 98% | 71% | Dose-dependent effect | 11.1 µM | Activity [5]: Active; inhibition [6]: Active; inhibition [8]: Active; IC50 [13]: 22.7 µM |
| CC(=O)Nc1ccc(Nc2cc(Cl)c(C(F)(F)F)cc2[N+](=O)[O-])cc1 | 81% | 51% | Dose-dependent effect | – | – |
| O=C1/C(=C/c2cccs2)SC(=S)N1c1cccc(O)c1 | 65% | – | Dose-dependent effect | – | – |
